Test results reported in patent publication US20160039936A1, “FIBROBLAST GROWTH FACTOR RECEPTOR INHIBITION FOR THE TREATMENT OF DISEASE” (UNIVERSITY OF MIAMI, priority 2011, published 2016).

B1: FGF2: recombinant mouse FGF2 (Ala11-Ser154) (R&D Systems) (protein)
chain: ALPEDGGAAFPPGHFKDPKRLYCKNGGFFLRIHPDGRVDGVREKSDPHVKLQLQAEERGVVSIKGVCANRYLAMKEDGRLLASKCVTEECFFFERLESNNYNTYRSRKYSSWYVALKRTGQYKLGSKTGPGQKAILFLPMSAKS

What was measured:
[1] = test system: FGFR; conditions: Mohammadi et al. 1998; Grand et al. 2004; cited from earlier work
[2] = test system: 5/6 nephrectomy rat model of CKD; assay: 5/6 nephrectomy rat model of CKD; type: in vivo; conditions: PD173074 1 mg/kg/day i.p. 14 days
Description: FGFR activity is required for the development of LVH in a rat model of CKD Since the cardiac effects of FGF23 are mediated by FGFR activation and could be blocked in vitro by the FGFR inhibitor PD173074, we tested the hypothesis that PD173074 could also attenuate LVH in the 5/6 nephrectomy rat model of CKD, which is known to develop increased FGF23 levels, severe hypertension, and LVH. We performed 5/6 nephrectomy in male Sprague Dawley rats using standard surgical techniques, and administered by intra-peritoneal injection either 1 mg/kg body weight/day of PD173074 dissolved in PBS (n=6) or vehicle alone (n=6) beginning one hour after surgery and continued daily for 14 days (FIG. 7). As a negative control, 6 rats underwent sham nephrectomy. At day 14 after surgery, we measured blood pressure, performed echocardiograms, collected blood for laboratory testing, sacrificed the animals and examined their hearts. […] Compared with vehicle, PD 173074 treatment led to decreased left ventricular mass, reduced ratio of heart weight to total body weight, decreased left ventricular wall thickness and relative wall thickness, decreased cross-sectional surface area of individual cardiac myocytes, and increased left ventricular end diastolic volume and ejection fraction (FIG. 7A-C). […]
Kidney disease was induced in Sprague Dawley rats using the 5/6 nephrectomy method (Di Marco et al., 2014). Rats were randomized to 3 groups of 6 animals each: sham nephrectomy, or 5/6 nephrectomy plus intra-peritoneal injections of vehicle (PBS) or anti-FGFR4 blocking antibody (human monoclonal, U3-11; U3Pharma) at 25 mg/kg/day every 3 days beginning one hour after surgery. High-resolution echocardiography (15 MHz) was performed at 14 days after surgery to assess LV mass, wall and chamber dimensions, and systolic and diastolic function using an HDI 5000 Ultrasound system (Philips, Best, The Netherlands). M-mode, 2D and 3D recordings were obtained under general anesthesia delivered through a nose mask while heart rate and body temperature were maintained. Blood pressure was measured in conscious rats using a computerized rat-tail cuff technique (CODA, Kent Scientific Corporation). On day 14, animals were sacrificed and the hearts were isolated and prepared for histological and serological analyses.
Short-axis heart sections were stained with hematoxylin and eosin (VWR) and used to quantify myocardial thickness by measuring the distance from the inner to the outer myocardial edges at the mid-chamber zone. Mean left ventricular free wall thickness was calculated from seven measurements of wall thickness taken at 0, 30, 60, 90, 120, 150 and 180 degrees along the hemi-circle of the short axis of the free wall. Images were taken on a Nikon SMZ 1500 microscope using 0.75× magnification.
We measured cross-sectional area of individual cardiac myocytes in paraffin-embedded short-axis sections of mouse and rat hearts. Briefly, 7 μm thick sections were deparaffinized according to our established protocols (Faul et al., 2011). To visualize cellular borders, fixed tissue was incubated with wheat germ agglutinin (WGA) conjugated to Alexa Fluor555 (Invitrogen) at 1 mg/ml in PBS containing 10 mM sodium azide. Immunofluorescence images were taken on a Leica TCS-SP5 confocal microscope with a 63× oil objective. Leica AF6000 fluorescence software was used to quantify cross-sectional area of 25 cells per field at four fields along the mid-chamber free wall based on WGA-positive staining.
Short-axis cardiac sections from mice and rats were stained with Picrosirius Red (Sigma-Aldrich) and used to quantify myocardial fibrosis. Sections were deparaffinized, counterstained with hematoxylin (VWR) and incubated in Picrosirius Red solution for 60 minutes. After washing in acidified water, sections were dehydrated in ascending ethanol series and mounted in non-aqueous mounting media. […]

[3] = test system: isolated NRVM; assay: Ras/MAPK signaling (phospho-FRS2α, phospho-ERK1/2) Western blot in NRVM; type: cell-based, rat; conditions: 30 minutes, FGF alone
Method: HEK293 cells, NRVM or NMVM were treated with growth factors for 30 minutes to analyze activation of signal transduction mediators, or for 48 hours to analyze expression levels of hypertrophic marker proteins. Cells were scraped from 6-well plates using 500 μl CHAPS extraction buffer (20 mM Tris-HCl pH7.5, 500 mM NaCl, 0.5% CHAPS, protease inhibitor cocktail (Roche), protein phosphatase inhibitors [Sigma-Aldrich]) and incubated on ice for 30 minutes. The cell lysate was centrifuged at 14,000 rpm and 4° C. for 30 minutes, and the supernatant boiled in sample buffer and analyzed by SDS-PAGE and immunoblotting. For protein extraction from mouse hearts, tissue was isolated, minced and homogenized in RIPA extraction buffer (50 mM Tris-HCl pH 7.5, 200 mM NaCl, 1% Triton X-100, 0.25% DOC, 1 mM EDTA, 1 mM EGTA, protease and phosphatase inhibitors) at 1:10 (w:v), and protein lysates were prepared as described above. […]

| Molecule | phosphorylation of FGFR3 and FGFR4 [1] | 5/6 nephrectomy-induced increased cardiac β-MHC and ANP and decreased MCAD mRNA [2] | blood pressure vs vehicle [2] | renal function and serum FGF23 levels vs vehicle [2] | LVH ([2]; vs vehicle) | cross-sectional surface area of individual cardiac myocytes ([2]; vs vehicle) | left ventricular end diastolic volume and ejection fraction ([2]; vs vehicle) | left ventricular mass ([2]; vs vehicle) | left ventricular wall thickness and relative wall thickness ([2]; vs vehicle) | ratio of heart weight to total body weight ([2]; vs vehicle) | hepatic expression of p-ERK protein levels ([2]; vs sham and 5/6 nephrectomized rats) | levels of phosphorylated FRS2α and ERK1/2 [3] |
| --- | --- | --- | --- | --- | --- | --- | --- | --- | --- | --- | --- | --- |
| CCN(CC)CCCCNc1ncc2cc(-c3cc(OC)cc(OC)c3)c(NC(=O)NC(C)(C)C)nc2n1 [PD173074] | inhibits | not observed | no difference was detected | no differences | significantly attenuated | decreased | increased | decreased | decreased | reduced | decreased | – |
| B1 | – | – | – | – | – | – | – | – | – | – | – | increased |
